Measured values published in US7846722B2 (priority 2001, dated 2010).

Tests used:
[1] = test system: Neuro-2A cells; type: cell-based, mouse
[2] = target: BoNT/A (Clostridium botulinum, UniProt P0DPI0); conditions: cited from earlier work
Chain of BoNT/A (P0DPI0 whole entry, looked up): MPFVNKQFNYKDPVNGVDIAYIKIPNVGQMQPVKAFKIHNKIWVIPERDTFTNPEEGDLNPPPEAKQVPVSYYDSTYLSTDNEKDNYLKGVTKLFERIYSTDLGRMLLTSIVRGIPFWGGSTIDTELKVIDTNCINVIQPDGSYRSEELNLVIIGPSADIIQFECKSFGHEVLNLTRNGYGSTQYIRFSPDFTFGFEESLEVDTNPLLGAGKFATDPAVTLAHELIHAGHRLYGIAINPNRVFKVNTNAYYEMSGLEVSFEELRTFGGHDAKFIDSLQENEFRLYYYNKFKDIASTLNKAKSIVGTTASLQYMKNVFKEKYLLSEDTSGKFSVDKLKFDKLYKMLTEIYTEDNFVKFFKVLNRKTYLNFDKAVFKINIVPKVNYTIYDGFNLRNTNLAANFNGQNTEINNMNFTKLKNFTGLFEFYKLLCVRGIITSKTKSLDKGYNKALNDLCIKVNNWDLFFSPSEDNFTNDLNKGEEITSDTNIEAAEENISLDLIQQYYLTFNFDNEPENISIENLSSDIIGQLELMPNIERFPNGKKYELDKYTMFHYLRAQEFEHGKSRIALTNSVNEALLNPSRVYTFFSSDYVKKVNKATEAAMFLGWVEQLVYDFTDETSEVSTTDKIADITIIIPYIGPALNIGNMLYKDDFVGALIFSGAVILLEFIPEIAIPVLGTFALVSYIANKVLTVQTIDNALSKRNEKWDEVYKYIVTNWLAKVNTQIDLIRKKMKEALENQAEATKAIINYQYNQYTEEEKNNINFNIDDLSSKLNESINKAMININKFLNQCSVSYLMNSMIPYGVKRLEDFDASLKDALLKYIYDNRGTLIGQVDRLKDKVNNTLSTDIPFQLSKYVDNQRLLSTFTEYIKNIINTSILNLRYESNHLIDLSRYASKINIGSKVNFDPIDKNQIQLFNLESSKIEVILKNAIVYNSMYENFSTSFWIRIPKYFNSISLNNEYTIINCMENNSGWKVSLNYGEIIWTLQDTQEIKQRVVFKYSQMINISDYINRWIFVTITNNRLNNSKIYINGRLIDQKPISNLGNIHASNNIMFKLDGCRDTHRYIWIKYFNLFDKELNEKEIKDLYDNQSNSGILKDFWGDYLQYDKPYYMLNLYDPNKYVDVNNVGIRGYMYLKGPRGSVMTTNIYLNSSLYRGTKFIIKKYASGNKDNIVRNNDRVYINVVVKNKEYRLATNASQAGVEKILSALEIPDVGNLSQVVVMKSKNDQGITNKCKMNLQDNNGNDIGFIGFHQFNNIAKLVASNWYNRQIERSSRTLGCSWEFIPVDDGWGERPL

Compound	BoNT/A SNAP25197-cleavage product (uptake of BoNT/A) after differentiation reagent treatment [1]	Relative Rate [2]
CC1=C(/C=C/C(C)=C/C=C/C(C)=C/C(=O)O)C(C)(C)CCC1 [all trans retinoic acid, All Trans-Retinoic acid]	increase	
SNKTRIDEANBRATKML [Peptide Q11B]		0.25
SNKTRIDEANQRABKML [Peptide T14B]		1.20
SNKTRIDEANQRATKML [[1-17]]		1.00
SNKTRIDEANQRATKXL [Peptide M16X]		1.20
SNKTRIDEANQRBTKML [Peptide A13B]		0.79
SNKTRIDEBNQRATKML [Peptide A9B]		0.38
